Data taken from ChEMBL document CHEMBL1201862, “PubChem BioAssay data set” (2004).
The source made the active and inactive calls.

How the values were obtained:
[1] = Luminescence Cell-Based Dose Retest to Confirm Inhibitors of Cancer Stem Cells. [Related pubchem assays (depositor defined):AID2717, AID2721]; type: functional; conditions: Homo sapiens
[2] = cytotoxicity in HEK-293T cells, dose response, cytotoxicity control for BCR NF-kB inhibitor project, luminescence, B-cell screen hits (AID 489021); type: functional, cell-based;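 further: HEK-293T cells carrying an NF-kB luciferase reporter; cells exposed to compound for about 14 hours before viability readout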
[3] = target: T1, Tyrosine-protein phosphatase non-receptor type 7 (Homo sapiens, UniProt P35236); type: functional
T1 sequence (P35236 whole entry): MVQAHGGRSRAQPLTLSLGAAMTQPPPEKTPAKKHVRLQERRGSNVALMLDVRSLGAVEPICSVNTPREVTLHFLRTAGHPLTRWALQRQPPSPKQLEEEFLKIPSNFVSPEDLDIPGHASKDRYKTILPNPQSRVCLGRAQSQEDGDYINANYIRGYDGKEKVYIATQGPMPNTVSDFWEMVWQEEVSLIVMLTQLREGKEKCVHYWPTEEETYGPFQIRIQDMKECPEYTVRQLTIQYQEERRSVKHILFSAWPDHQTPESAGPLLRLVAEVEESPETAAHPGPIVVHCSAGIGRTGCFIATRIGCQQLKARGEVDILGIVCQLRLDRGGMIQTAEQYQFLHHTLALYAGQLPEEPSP

[4] = target: T2, Tyrosine-protein phosphatase non-receptor type 22 (Homo sapiens, UniProt Q9Y2R2); type: functional
T2 sequence (Q9Y2R2 whole entry): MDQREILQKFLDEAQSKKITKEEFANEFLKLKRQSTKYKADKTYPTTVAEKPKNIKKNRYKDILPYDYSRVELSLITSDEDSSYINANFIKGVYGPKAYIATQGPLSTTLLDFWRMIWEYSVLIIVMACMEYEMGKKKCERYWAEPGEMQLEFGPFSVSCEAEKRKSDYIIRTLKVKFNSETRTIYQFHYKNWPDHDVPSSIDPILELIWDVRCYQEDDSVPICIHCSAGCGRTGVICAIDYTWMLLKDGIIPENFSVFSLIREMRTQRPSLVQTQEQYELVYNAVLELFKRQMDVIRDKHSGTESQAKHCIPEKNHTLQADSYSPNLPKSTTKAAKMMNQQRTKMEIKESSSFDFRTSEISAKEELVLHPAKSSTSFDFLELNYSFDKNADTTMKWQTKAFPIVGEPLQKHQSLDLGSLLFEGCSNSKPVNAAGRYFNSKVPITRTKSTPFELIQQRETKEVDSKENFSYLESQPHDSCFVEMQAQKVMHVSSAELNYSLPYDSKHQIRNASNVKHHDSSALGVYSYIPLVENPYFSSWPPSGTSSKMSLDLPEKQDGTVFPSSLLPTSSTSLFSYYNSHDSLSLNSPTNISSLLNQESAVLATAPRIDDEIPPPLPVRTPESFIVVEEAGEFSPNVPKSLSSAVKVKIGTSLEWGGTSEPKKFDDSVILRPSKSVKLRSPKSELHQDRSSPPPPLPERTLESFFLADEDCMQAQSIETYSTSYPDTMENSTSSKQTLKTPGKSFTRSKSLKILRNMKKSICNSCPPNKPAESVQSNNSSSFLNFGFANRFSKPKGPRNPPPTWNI

[5] = target: T2, Tyrosine-protein phosphatase non-receptor type 22; type: functional; remark: listed apart in the source
[6] = A cytotoxicity screen of small molecule inhibitors of the PhoP region in Salmonella typhi identified in the primary screen. [Related pubchem assays: 1850, 1864, 1985 ]; type: functional
Cytochrome P450 3A4 = Cytochrome P450 3A4 (Homo sapiens, UniProt P08684); conditions: Potency;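 further: confirmatory qHTS run detecting inhibitors and substrates of CYP3A4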
[7] = target: Voltage-dependent T-type calcium channel subunit alpha-1H (Homo sapiens, UniProt O95180); type: functional;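 further: channel activity triggered by adding a high calcium stimulation buffer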
[8] = target: Eukaryotic translation initiation factor 4E (Mus musculus, UniProt P63073); assay: eIF4E–eIF4G protein interaction inhibitors, dose response, biochemical, TR-FRET (AID 855); type: functional;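 further: potency for disrupting eIF4E binding to eIF4GI seen as loss of FRET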
BJ [9] = assay: cytotoxicity toward BJ-TERT fibroblasts, dose response, cell-based, RAS-independent, luminescence (AID 1933); type: functional; conditions: Homo sapiens
BJ [10] = assay: cells; type: functional, cell-based; conditions: Homo sapiens
BJ [11] = assay: cytotoxicity toward BJ-TERT-LT-ST fibroblasts, dose response, cell-based, RAS-independent, luminescence (AID 1935); type: functional; conditions: Homo sapiens;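 further: BJ fibroblasts immortalized with TERT plus LT and ST oncogenes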
[12] = cytotoxicity toward DRD oncogenic fibroblasts, dose response, cell-based, non-viral oncogenic, luminescence (AID 1934); type: functional; conditions: Homo sapiens
[13] = cytotoxicity in HEK-293T cells, dose response, cytotoxicity control for TCR NF-kB inhibitor project, luminescence, T-cell screen hits (AID 489026); type: functional, cell-based;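 further: cells exposed to compound about 14 hours before the viability readout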
INS1 = assay: beta cell apoptosis inhibitors, cytokine rescue, dose response, luminescence, retest (AID 449756); type: functional, cell-based; conditions: Rattus norvegicus;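 further: cell death triggered by IL-1 beta plus TNF-alpha plus IFN-gamma mixture; protective hits raise ATP signal compared with cytokine alone wells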

Voltage-dependent T-type calcium channel subunit alpha-1H, sequence (O95180 whole entry): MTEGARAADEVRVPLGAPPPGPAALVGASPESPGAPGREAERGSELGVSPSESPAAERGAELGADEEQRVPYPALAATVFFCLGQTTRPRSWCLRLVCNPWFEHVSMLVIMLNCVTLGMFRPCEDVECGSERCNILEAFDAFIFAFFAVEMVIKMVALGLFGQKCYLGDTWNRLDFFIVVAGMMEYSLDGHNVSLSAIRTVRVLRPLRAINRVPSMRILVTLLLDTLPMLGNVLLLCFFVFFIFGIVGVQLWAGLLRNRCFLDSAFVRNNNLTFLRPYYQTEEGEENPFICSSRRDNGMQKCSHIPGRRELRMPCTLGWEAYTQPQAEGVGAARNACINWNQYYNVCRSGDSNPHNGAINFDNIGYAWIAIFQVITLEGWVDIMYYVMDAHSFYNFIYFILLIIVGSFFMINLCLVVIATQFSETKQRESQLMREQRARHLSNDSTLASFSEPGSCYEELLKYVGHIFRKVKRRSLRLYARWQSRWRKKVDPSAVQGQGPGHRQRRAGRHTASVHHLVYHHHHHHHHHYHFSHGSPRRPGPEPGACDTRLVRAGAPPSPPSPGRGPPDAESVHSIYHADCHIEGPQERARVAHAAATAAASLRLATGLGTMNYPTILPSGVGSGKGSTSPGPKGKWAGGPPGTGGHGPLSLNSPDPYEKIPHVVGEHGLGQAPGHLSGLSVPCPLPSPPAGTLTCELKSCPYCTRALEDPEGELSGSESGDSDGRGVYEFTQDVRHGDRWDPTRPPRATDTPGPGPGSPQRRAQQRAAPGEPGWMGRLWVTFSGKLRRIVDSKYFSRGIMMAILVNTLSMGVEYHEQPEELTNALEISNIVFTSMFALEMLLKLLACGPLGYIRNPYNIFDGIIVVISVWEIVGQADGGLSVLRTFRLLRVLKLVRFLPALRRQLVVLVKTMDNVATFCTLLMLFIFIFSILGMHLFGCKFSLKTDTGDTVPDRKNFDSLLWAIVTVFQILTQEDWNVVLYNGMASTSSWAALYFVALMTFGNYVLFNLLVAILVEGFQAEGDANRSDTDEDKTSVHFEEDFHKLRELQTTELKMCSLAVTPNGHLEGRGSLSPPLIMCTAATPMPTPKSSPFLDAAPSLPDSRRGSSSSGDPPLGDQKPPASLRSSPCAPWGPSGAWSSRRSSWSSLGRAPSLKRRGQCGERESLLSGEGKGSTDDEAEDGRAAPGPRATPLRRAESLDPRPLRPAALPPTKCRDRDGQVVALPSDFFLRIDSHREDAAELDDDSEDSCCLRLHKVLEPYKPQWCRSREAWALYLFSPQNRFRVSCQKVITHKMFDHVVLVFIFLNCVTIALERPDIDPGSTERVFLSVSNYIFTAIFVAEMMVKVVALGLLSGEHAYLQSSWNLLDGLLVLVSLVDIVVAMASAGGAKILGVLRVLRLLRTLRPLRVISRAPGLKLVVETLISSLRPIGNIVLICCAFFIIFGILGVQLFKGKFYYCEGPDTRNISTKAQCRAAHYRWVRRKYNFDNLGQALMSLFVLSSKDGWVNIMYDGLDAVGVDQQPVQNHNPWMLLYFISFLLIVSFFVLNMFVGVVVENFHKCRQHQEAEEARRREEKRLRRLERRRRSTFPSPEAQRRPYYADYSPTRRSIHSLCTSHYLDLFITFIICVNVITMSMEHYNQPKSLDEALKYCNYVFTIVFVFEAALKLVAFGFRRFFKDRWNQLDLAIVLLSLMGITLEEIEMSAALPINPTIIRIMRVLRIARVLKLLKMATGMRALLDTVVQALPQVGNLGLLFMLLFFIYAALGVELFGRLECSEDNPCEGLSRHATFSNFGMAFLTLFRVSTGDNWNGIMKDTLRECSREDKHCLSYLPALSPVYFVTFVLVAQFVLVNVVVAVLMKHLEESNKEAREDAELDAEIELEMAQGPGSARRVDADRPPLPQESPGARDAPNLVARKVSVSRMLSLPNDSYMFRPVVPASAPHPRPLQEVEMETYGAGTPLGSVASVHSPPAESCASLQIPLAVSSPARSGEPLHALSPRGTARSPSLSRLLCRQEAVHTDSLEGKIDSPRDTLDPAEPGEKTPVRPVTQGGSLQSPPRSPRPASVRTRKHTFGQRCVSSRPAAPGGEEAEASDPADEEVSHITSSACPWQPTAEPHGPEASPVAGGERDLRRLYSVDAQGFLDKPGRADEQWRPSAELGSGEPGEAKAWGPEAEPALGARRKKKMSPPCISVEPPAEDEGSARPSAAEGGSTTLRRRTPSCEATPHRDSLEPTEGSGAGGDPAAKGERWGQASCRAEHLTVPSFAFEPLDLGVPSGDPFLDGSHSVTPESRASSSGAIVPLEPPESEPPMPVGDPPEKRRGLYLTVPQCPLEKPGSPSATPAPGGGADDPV
Cytochrome P450 3A4, sequence (P08684 whole entry): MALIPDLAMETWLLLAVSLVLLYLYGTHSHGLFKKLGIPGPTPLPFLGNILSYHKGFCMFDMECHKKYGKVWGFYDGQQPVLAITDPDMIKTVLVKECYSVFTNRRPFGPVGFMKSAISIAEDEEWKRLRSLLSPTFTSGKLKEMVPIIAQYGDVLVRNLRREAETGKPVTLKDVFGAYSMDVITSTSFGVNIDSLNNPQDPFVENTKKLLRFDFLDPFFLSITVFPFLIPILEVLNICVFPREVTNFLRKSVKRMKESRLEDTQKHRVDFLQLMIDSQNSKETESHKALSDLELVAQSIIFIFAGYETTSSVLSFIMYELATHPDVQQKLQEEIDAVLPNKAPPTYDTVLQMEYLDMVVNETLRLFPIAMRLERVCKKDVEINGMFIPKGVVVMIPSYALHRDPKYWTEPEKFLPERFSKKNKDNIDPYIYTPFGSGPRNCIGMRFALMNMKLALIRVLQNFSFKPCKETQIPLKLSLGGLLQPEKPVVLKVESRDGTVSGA
Eukaryotic translation initiation factor 4E, sequence (P63073 whole entry): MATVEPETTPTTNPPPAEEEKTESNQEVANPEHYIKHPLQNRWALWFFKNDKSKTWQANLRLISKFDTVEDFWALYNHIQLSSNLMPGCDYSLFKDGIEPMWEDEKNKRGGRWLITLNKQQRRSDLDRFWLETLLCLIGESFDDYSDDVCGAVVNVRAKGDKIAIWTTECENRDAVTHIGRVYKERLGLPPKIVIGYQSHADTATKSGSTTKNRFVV

Compound: COc1cccc(Cn2nnc(C(=O)Nc3cc(Cl)ccc3OC)c2N)c1
- AC50 [1]: 0.498 µM (active)
- IC50 [2]: > 80 µM (inactive)

Compound: CCn1cc(Br)c(C(=O)NC(=S)Nc2ccc(C(=O)OC)cc2)n1
- IC50 [3]: > 79.4 µM (inactive)
- IC50 [4]: > 79.4 µM (inactive)
- IC50 [5]: > 79.4 µM (inactive)

Compound: CN(C)S(=O)(=O)N1CCN(S(=O)(=O)c2ccc3ccccc3c2)CC1
- IC50 [3]: > 79.4 µM (inactive)
- IC50 [4]: > 79.4 µM (inactive)
- IC50 [5]: > 79.4 µM (inactive)

Compound: CCN1CCN(C(=O)Nc2ccc(Cc3ccc(NC(=O)N4CCN(CC)CC4)cc3)cc2)CC1
- EC50 [6]: > 50 µM (active)

Compound: O=C(N/N=C/c1ccc(Cl)cc1Cl)c1ccc(-n2cnnn2)cc1
- IC50 [2]: > 80 µM (inactive)

Compound: COC(=O)CC1[C@@]2(C)C[C@@]34OC5(C)OC6(CC[C@@]7(C)C(c8ccoc8)OC(=O)C(C(C)=O)C7[C@]6(O5)C(O)[C@@]3(O)C2O)[C@]14C (some centres not stated)
- AC50 (Cytochrome P450 3A4): 39.8 µM (inconclusive)

Compound: CCCCCCN(C(=O)CCCCCN1C(=O)NC(c2ccc(-c3ccccc3)cc2)C(C(=O)OCc2ccccc2)=C1C)C(C(=O)NCCCC)c1ccccn1 (configuration not stated)
- AC50 (Cytochrome P450 3A4): 1 µM (inconclusive)

Compound: CCC(CC)c1nnc(NC(=O)C2COc3ccccc3O2)s1 (configuration not stated)
- EC50 [7]: 3.85 µM (active)

Compound: CC1=CC2=NC(=O)/C(=C\c3cc(C)n(-c4ccccc4)c3C)C(=N)N2O1
- IC50 [8]: > 64 µM (inactive)

Compound: COc1ccccc1N1CCN(C(=O)C2c3ccccc3Oc3ccccc32)CC1
- EC50 (BJ [9]): 2.13 µM (active)
- EC50 (BJ [10]): 40.2 µM (inconclusive)
- EC50 (BJ [11]): 1.65 µM (inconclusive)
- EC50 [12]: 2.06 µM (inconclusive)
- EC50 [7]: 3.44 µM (active)
- IC50 [13]: > 80 µM (inactive)

Compound: CCN(Cc1ccccc1)C(c1ccc(C(F)(F)F)cc1)c1nnnn1C(C)(C)C (configuration not stated)
- EC50 [7]: 11.8 µM (active)
- AC50 (INS1): 6.45 µM (active)

Compound: Cc1ccc(C)c(CN2C(=O)COc3ccc(C(=O)c4ccccc4C(=O)O)cc32)c1
- IC50 [3]: > 79.4 µM (inactive)
- IC50 [4]: > 79.4 µM (inactive)
- IC50 [5]: > 79.4 µM (inactive)

Compound: Oc1ccc(C2Oc3cc(O)cc(O)c3CC2O)cc1 (configuration not stated)
- AC50 (Cytochrome P450 3A4): 12.6 µM (inconclusive)

Compound: C=CCn1c(S)nnc1-c1ccc2[nH]c(C)c(C)c2c1
- IC50 [8]: > 64 µM (inactive)
